Experiment [1] has as its target T1, His6P4H1 (Dictyostelium discoideum, UniProt Q86KR9). As to the kind of experiment: […]CO2-release assay with Skp1A. In kind it is biochemical. Conditions: 0.05 mM [1-14C]αKG, 5 µM Skp1A, 5 µM Fe(II), 1 mM ascorbate, pH 7.4, 29 °C, αKG antagonist.
For experiment [2], the target named is T1, His6P4H1. As to the kind of experiment: […]CO2-release assay with Skp1A. Conditions: read-out: % inhibition at 1 mM. It counts as biochemical.

Molecules are shown by their SMILES.

T1 sequence (Q86KR9 whole entry): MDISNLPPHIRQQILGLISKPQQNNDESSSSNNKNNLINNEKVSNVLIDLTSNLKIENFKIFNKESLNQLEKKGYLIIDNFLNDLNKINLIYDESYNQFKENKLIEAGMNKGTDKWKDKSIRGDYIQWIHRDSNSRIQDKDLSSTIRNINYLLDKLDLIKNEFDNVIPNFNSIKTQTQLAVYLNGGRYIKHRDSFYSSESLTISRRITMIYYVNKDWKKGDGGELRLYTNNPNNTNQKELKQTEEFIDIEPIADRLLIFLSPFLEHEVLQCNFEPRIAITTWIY

On to `COC(=O)CNC(=O)C(=O)OC` [DMOG], for which the “% inhibition” value at His6P4H1 [1] (EtOH carrier) is “the αKG antagonists DMOG and PCA, and CoCl2 (Fig. 1D)”.

In the case of `O=C(O)c1ccc(O)c(O)c1` [PCA], the “% inhibition” value at His6P4H1 [1] is “the αKG antagonists DMOG and PCA, and CoCl2 (Fig. 1D)”.

On to `O=C(O)/C=C/C(=O)O` [fumarate], for which the inhibition at 1000 µM at His6P4H1 [2] was 50 to 70%.

Consider `O=C(O)CC(=O)C(=O)O` [oxaloacetate], for which the inhibition at 1000 µM at His6P4H1 [2] lay in the range of 50 to 70%.

As for `O=C(O)CCC(=O)O` [succinate], the inhibition at 1000 µM at His6P4H1 [2] fell in the range of 50 to 70%.

Source of the values: article PMC3192012 (Biochemistry, 2011).
